Patent US11945784B2, “IRE1 small molecule inhibitors” (Cornell University, priority 2018, dated 2024)

Experiments:
[1] = target: T1, IRE1α (Homo sapiens (Human), UniProt O75460); assay: In vitro luciferase assay (IRE1α Endoribonuclease Nanoluciferase Assay); format: cell-based; conditions: 293T cells, XBP1 luciferase reporter
Protocol: Compounds disclosed herein were assessed for disruption of IRE-1 signaling using a IRE1α Endoribonuclease Nanoluciferase Assay. Briefly, 2.5×10^6 293T cells were seeded in a 10 cm^2 tissue culture plate. About 24 hours later, the cells were transfected with Effectene. In a 15 mL Tube, the following was added: 2 μg XBP1 luciferase reporter plasmid (PGK-Luc2-P2A-XBP1u-Nanoluciferase-PEST); 300 μl EC buffer; and 16 μl Enhancer, followed by incubation at room temp for 5 minutes. Next, 60 μl Effectene (Qiagen 301427) was added, followed by incubation at room temperature for 10 minutes. 2.6 mL cDMEM media was added. Old media was aspirated from the cells, followed by addition of 7 mL fresh media. Full transfection mixture was added dropwise to cells. Cells were incubated for 6 hours, followed by trypsinization, centrifugation and resuspension in 11 mL media. 100 uL of cells were plated per a well in a 96 well plate. A day later, ER stressors of choice+/−inhibitors were added. To harvest, media was aspirated from cells completely, then 50 uL 1× passive lysis buffer (Promega: E1941) was added per well and put on shaker (300 rpm) for 30 minutes at room temperature. Cells were centrifuged, and 15 uL sample per well was added to a new, opaque white 384 well plate (Corning 3570). 15 uL OneGlo (nanoluciferase kit, Promega N1630) was added. Plates were spun down, placed on shaker (300 rpm) for 10 minutes. Plates were read on luminometer, 1000 ms integration time per well. 15 uL Stop and Glo (nanoluciferase kit) was added. Plates were spun down, placed on shaker (300 rpm) for 10 minutes. Plates were read on luminometer, 1000 ms second integration time per well. Recordings are provided below in Table 4

[2] = target: T1, IRE1α; assay: In vitro FRET assay; format: biochemical; conditions: XBP1 RNA probe
Protocol: In vitro FRET assay was performed to evaluate the ability of select compounds to inhibit IRE1, the results of which are summarized in Table 3. To perform the in vitro FRET assay, 1× complete assay buffer (CAB; […], 50 mM sodium citrate pH 7.15, 1 mM magnesium acetate, 0.02% tween 20) was used to dilute SignalChem IRE1α protein to a final concentration of 2 nM. Selected compounds were serially diluted with DMSO in a non-binding black 384-well plate for a total of 15 ul in each well. 2 ul of the serially diluted compound or DMSO control were then added to new wells containing 98 ul of 1×CAB, for a total volume of 100 ul, 10 ul of which were then transferred to wells of a new plate. 5 ul of the diluted IRE1α was then added to each well. 5 ul of a […] XBP1 RNA probe was then added to each well. Fluorescence was then read over 30 minutes in kinetic mode (485/515 nm).
Two RNA probes were used, XBP1 wildtype (SEQ ID NO: 2) which is able to be spliced by active IRE1α or XBP1 mutant (SEQ ID NO: 3) which is unable to be spliced. Each probe contained a 5′ 6-FAM modification and a 3′ IOWA Black FQ modification.
A second FRET assay was performed to assess ATP-mediated inhibition. In this case, compounds and IRE1α were prepared and combined as discussed above, with the addition of ATP up to 1 mM final concentration. This mixture was incubated at room temperature for 60 minutes and then 5 ul of 400 nM XBP1 wildtype or mutant RNA probe was added. Plates were then read over 30 minutes in kinetic mode (485/515 nm) and rate of fluorescence increase calculated for different compound dilutions to determine IC50 (Table 3).

T1 sequence (O75460 19-977): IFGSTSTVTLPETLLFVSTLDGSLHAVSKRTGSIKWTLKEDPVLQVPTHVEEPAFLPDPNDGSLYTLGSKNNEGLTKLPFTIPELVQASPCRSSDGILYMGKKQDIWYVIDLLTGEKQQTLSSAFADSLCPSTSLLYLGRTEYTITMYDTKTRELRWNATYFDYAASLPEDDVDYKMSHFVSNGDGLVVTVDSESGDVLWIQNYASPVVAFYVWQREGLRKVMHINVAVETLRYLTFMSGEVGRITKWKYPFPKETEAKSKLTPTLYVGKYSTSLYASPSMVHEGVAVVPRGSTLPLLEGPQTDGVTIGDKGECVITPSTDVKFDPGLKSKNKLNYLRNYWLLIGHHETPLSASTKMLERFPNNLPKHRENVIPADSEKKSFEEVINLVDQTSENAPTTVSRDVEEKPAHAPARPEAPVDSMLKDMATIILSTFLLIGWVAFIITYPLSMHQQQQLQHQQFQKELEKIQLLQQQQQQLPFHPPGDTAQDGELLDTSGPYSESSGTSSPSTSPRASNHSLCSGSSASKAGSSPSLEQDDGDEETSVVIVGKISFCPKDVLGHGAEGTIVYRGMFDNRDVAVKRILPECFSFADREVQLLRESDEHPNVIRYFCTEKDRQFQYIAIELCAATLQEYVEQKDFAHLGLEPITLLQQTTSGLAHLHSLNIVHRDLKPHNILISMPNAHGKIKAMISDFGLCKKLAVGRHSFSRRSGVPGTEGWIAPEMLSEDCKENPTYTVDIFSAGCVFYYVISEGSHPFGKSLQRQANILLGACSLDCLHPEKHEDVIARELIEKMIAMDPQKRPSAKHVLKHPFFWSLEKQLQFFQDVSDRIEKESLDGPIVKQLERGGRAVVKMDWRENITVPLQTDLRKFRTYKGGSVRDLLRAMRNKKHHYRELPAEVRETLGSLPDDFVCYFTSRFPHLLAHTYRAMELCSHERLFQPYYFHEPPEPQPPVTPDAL

Row | Compound | EC50 [1] | IC50 [2]
1 | NC1CCC(Nc2ncc(/C=C/c3ccc(NS(=O)(=O)c4ccccc4Cl)c(F)c3)cn2)CC1 (centres unmarked) [Compound 3, N-(4-((E)-2-(2-(((1r,4r)-4-aminocyclohexyl)amino)pyrimidin-5-yl)vinyl)-2-fluorophenyl)-2-chlorobenzenesulfonamide] | ≤ 5 nM | 
2 | Cc1cc(NS(=O)(=O)c2ccccc2Cl)ccc1CCc1cnc(NC2CCC(N)CC2)nc1 (centres unmarked) [Compound 6, N-(4-(2-(2-(((1r,4r)-4-aminocyclohexyl)amino)pyrimidin-5-yl)ethyl)-3-methylphenyl)-2-chlorobenzenesulfonamide] |  | ≤ 1 nM
3 | N[C@H]1CC[C@H](Nc2ncc(CCc3ccc(NS(=O)(=O)c4ccccc4Cl)nn3)cn2)CC1 [Compound 7, N-(6-(2-(2-(((1r,4r)-4-aminocyclohexyl)amino)pyrimidin-5-yl)ethyl)pyridazin-3-yl)-2-chlorobenzenesulfonamide] |  | 1 to 5 nM
4 | COc1nc(NS(=O)(=O)c2ccccc2Cl)ccc1CCc1ccc(NC2CCC(N)CC2)nc1 (centres unmarked) [Compound 13, N-(5-(2-(6-(((1r,4r)-4-aminocyclohexyl)amino)pyridin-3-yl)ethyl)-6-methoxypyridin-2-yl)-2-chlorobenzenesulfonamide] |  | 1 to 5 nM
5 | COc1cc(NS(=O)(=O)c2ccccc2Cl)cnc1CCc1cnc(NC2CCC(N)CC2)nc1 (centres unmarked) [Compound 18, N-(6-(2-(2-(((1r,4r)-4-aminocyclohexyl)amino)pyrimidin-5-yl)ethyl)-5-methoxypyridin-3-yl)-2-chlorobenzenesulfonamide] |  | ≤ 1 nM
6 | Cc1nc(NS(=O)(=O)c2ccccc2Cl)c(F)cc1/C=C/c1cnc(NC2CCC(N)CC2)nc1 (centres unmarked) [Compound 58, N-(5-((E)-2-(2-(((1r,4r)-4-aminocyclohexyl)amino)pyrimidin-5-yl)vinyl)-3-fluoro-6-methylpyridin-2-yl)-2-chlorobenzenesulfonamide] | 50 to 100 nM | 
7 | CN(C)C1CCC(Nc2ncc(/C=C/c3ccc(NS(=O)(=O)c4ccc(F)cc4Cl)nc3)cn2)CC1 (centres unmarked) [Compound 61, 2-chloro-N-(5-((E)-2-(2-(((1r,4r)-4-(dimethylamino)cyclohexyl)amino)pyrimidin-5-yl)vinyl)pyridin-2-yl)-4-fluorobenzenesulfonamide] | ≤ 5 nM | 
8 | Cc1nc(NS(=O)(=O)c2cnccc2Cl)ccc1/C=C/c1cnc(NC2CCC(N(C)C)CC2)nc1 (centres unmarked) [Compound 62, 4-chloro-N-(5-((E)-2-(2-(((1r,4r)-4-(dimethylamino)cyclohexyl)amino)pyrimidin-5-yl)vinyl)-6-methylpyridin-2-yl)pyridine-3-sulfonamide] | 50 to 100 nM | 
9 | CN(C)C1CCC(Nc2ncc(/C=C/c3ccc(NS(=O)(=O)c4cccc(Cl)c4Cl)nc3)cn2)CC1 (centres unmarked) [Compound 63, 2,3-dichloro-N-(5-((E)-2-(2-(((1r,4r)-4-(dimethylamino)cyclohexyl)amino)pyrimidin-5-yl)vinyl)pyridin-2-yl)benzenesulfonamide] | ≤ 5 nM | 
10 | COc1cc(NS(=O)(=O)c2cnccc2Cl)ccc1/C=C/c1cnc(NC2CCC(N(C)C)CC2)nc1 (centres unmarked) [Compound 65, 4-chloro-N-(4-((E)-2-(2-(((1r,4r)-4-(dimethylamino)cyclohexyl)amino)pyrimidin-5-yl)vinyl)-3-methoxyphenyl)pyridine-3-sulfonamide] | ≤ 5 nM | 
11 | COc1cc(NS(=O)(=O)c2ccccc2Cl)c(F)cc1/C=C/c1cnc(NC2CCC(N(C)C)CC2)nc1 (centres unmarked) [Compound 67, 2-chloro-N-(4-((E)-2-(2-(((1r,4r)-4-(dimethylamino)cyclohexyl)amino)pyrimidin-5-yl)vinyl)-2-fluoro-5-methoxyphenyl)benzenesulfonamide] | ≤ 5 nM | 
12 | CN(C)C1CCC(Nc2ncc(/C=C/c3ccc(NS(=O)(=O)c4cccc(F)c4Cl)nc3)cn2)CC1 (centres unmarked) [Compound 68, 2-chloro-N-(5-((E)-2-(2-(((1r,4r)-4-(dimethylamino)cyclohexyl)amino)pyrimidin-5-yl)vinyl)pyridin-2-yl)-3-fluorobenzenesulfonamide] | ≤ 5 nM | 

Results, then the compound that gave them:

Row | EC50 [1] | IC50 [2] | Compound
13 | 50 to 100 nM |  | COc1nc(NS(=O)(=O)c2cccc(F)c2Cl)ccc1/C=C/c1cnc(NC2CCC(N(C)C)CC2)nc1 (single isomer, unassigned) [Compound 53, 2-chloro-N-(5-((E)-2-(2-(((1r,4r)-4-(dimethylamino)cyclohexyl)amino)pyrimidin-5-yl)vinyl)-6-methoxypyridin-2-yl)-3-fluorobenzenesulfonamide]
14 |  | 1 to 5 nM | COc1nc(NS(=O)(=O)c2ccccc2Cl)ccc1/C=C/c1cnc(NC2CCC(O)CC2)nc1 (centres unmarked) [Compound 11, 2-chloro-N-(5-((E)-2-(2-(((1r,4r)-4-hydroxycyclohexyl)amino)pyrimidin-5-yl)vinyl)-6-methoxypyridin-2-yl)benzenesulfonamide]
15 |  | 5 to 50 nM | COc1nc(NS(=O)(=O)c2ccccc2Cl)ccc1CCc1cnc(NC2CCC(O)CC2)nc1 (centres unmarked) [Compound 12, 2-chloro-N-(5-(2-(2-(((1r,4r)-4-hydroxycyclohexyl)amino)pyrimidin-5-yl)ethyl)-6-methoxypyridin-2-yl)benzenesulfonamide]
16 | 5 to 50 nM |  | CN(C)C1CCC(Nc2ncc(/C=C/c3ccc(NS(=O)(=O)c4ccccc4Cl)nn3)cn2)CC1 (centres unmarked) [Compound 52, 2-chloro-N-(6-((E)-2-(2-(((1r,4r)-4-(dimethylamino)cyclohexyl)amino)pyrimidin-5-yl)vinyl)pyridazin-3-yl)benzenesulfonamide]
17 | 50 to 100 nM |  | COc1nc(NS(=O)(=O)c2ccccc2Cl)c(F)cc1/C=C/c1cnc(NC2CCC(N)CC2)nc1 (centres unmarked) [Compound 54, N-(5-((E)-2-(2-(((1r,4r)-4-aminocyclohexyl)amino)pyrimidin-5-yl)vinyl)-3-fluoro-6-methoxypyridin-2-yl)-2-chlorobenzenesulfonamide]
18 | 50 to 100 nM |  | COc1nc(NS(=O)(=O)c2cnccc2Cl)ccc1/C=C/c1cnc(NC2CCC(N(C)C)CC2)nc1 (centres unmarked) [Compound 56, 4-chloro-N-(5-((E)-2-(2-(((1r,4r)-4-(dimethylamino)cyclohexyl)amino)pyrimidin-5-yl)vinyl)-6-methoxypyridin-2-yl)pyridine-3-sulfonamide]
19 | ≤ 5 nM |  | COc1nc(NS(=O)(=O)c2ccccc2Cl)ccc1/C=C/c1cnc(NC2CCC(N3CCOCC3)CC2)nc1 (centres unmarked) [Compound 57, 2-chloro-N-(6-methoxy-5-((E)-2-(2-(((1r,4r)-4-morpholinocyclohexyl)amino)pyrimidin-5-yl)vinyl)pyridin-2-yl)benzenesulfonamide]
20 | 50 to 100 nM |  | CNC1CCC(Nc2ncc(/C=C/c3cc(F)c(NS(=O)(=O)c4ccccc4Cl)nc3OC)cn2)CC1 (centres unmarked) [Compound 59, 2-chloro-N-(3-fluoro-6-methoxy-5-((E)-2-(2-(((1r,4r)-4-(methylamino)cyclohexyl)amino)pyrimidin-5-yl)vinyl)pyridin-2-yl)benzenesulfonamide]
21 | ≤ 5 nM |  | COc1nc(NS(=O)(=O)c2ccccc2Cl)ccc1/C=C/c1cnc(NC2CCC(N3CCCCC3)CC2)nc1 (centres unmarked) [Compound 60, 2-chloro-N-(6-methoxy-5-((E)-2-(2-(((1r,4r)-4-(piperidin-1-yl)cyclohexyl)amino)pyrimidin-5-yl)vinyl)pyridin-2-yl)benzenesulfonamide]
22 | ≤ 5 nM |  | COc1nc(NS(=O)(=O)c2ccccc2Cl)ccc1/C=C/c1cnc(NC2CCC(N3CCSCC3)CC2)nc1 (centres unmarked) [Compound 64, 2-chloro-N-(6-methoxy-5-((E)-2-(2-(((1r,4r)-4-thiomorpholinocyclohexyl)amino)pyrimidin-5-yl)vinyl)pyridin-2-yl)benzenesulfonamide]
23 | ≤ 5 nM |  | COc1c(/C=C/c2cnc(NC3CCC(N(C)C)CC3)nc2)ccc(NS(=O)(=O)c2ccccc2Cl)c1F (centres unmarked) [Compound 66, 2-chloro-N-(4-((E)-2-(2-(((1r,4r)-4-(dimethylamino)cyclohexyl)amino)pyrimidin-5-yl)vinyl)-2-fluoro-3-methoxyphenyl)benzenesulfonamide]
